In paper PMC9329436, “Optimization of the 4-anilinoquin(az)oline scaffold as epidermal growth factor receptor (EGFR) inhibitors for chordoma utilizing a toxicology profiling assay platform” (Scientific Reports, 2022):
Where two headings read alike, the source gives them in different places.

Assays:
Type in all cases: biochemical
[1] = molecular target: 320 wild-type protein kinases (Homo sapiens, UniProt P09619); details: PDGFR-beta, singlicate
From the text: (§1) Table S4. Profiling of two compounds at two concentrations against 320 wild-type protein kinases; singlicate measurement; Residual activities (% of control).

[2] = molecular target: 320 wild-type protein kinases (Homo sapiens, UniProt P12931); details: kinase SRC (GST-HIS-tag), singlicate
Chain of 320 wild-type protein kinases (Homo sapiens, UniProt P12931) (P12931 whole entry): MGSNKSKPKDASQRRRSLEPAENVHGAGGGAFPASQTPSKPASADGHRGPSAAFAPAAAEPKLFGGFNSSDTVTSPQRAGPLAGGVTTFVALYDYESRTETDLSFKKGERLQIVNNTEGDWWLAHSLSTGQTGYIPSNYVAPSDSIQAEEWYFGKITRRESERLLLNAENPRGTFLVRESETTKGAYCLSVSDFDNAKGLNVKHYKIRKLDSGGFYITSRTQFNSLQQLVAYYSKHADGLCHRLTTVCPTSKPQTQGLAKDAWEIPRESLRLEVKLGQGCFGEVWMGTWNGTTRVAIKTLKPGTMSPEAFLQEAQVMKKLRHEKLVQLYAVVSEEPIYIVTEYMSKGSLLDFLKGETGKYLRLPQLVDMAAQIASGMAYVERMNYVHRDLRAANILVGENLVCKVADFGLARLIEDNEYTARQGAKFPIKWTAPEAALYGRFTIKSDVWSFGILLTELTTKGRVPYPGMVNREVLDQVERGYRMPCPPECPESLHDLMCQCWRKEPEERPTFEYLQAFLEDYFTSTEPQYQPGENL
From the text: as §1

[3] = molecular target: 320 wild-type protein kinases (Homo sapiens, UniProt P15056); details: B-RAF, singlicate
Chain of 320 wild-type protein kinases (Homo sapiens, UniProt P15056) (P15056 whole entry): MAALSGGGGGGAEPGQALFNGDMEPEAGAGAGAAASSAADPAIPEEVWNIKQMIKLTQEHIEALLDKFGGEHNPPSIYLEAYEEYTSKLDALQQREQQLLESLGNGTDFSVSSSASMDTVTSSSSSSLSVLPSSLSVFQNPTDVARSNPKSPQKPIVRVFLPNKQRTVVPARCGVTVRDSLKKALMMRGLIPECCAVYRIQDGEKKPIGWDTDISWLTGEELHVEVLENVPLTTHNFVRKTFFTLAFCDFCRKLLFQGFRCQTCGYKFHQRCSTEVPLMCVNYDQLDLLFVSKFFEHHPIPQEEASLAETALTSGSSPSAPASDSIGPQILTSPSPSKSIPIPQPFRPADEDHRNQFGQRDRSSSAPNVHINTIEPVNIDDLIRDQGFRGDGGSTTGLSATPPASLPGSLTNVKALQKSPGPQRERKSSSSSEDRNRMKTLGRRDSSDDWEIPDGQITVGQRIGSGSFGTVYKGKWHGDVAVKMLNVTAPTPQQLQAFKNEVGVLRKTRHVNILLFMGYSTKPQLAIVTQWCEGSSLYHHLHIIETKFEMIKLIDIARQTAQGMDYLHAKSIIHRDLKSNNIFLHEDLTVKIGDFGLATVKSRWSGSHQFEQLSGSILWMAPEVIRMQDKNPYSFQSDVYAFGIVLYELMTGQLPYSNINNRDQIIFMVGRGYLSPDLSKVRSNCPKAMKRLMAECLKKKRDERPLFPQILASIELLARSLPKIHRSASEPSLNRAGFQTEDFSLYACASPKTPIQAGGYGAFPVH
From the text: as §1

[4] = molecular target: 320 wild-type protein kinases (Homo sapiens, UniProt P19784); details: singlicate
Chain of 320 wild-type protein kinases (Homo sapiens, UniProt P19784) (P19784 whole entry): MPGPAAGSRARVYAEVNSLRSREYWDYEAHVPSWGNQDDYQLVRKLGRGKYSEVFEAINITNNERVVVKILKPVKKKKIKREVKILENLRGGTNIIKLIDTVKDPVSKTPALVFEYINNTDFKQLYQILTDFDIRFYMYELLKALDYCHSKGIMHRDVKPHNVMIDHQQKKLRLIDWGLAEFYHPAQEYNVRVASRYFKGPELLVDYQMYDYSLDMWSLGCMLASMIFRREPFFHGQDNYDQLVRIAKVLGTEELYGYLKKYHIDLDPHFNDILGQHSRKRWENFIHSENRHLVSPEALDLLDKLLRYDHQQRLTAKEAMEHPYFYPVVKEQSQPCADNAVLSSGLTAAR
From the text: as §1

[5] = molecular target: 320 wild-type protein kinases (Homo sapiens, UniProt P27361); details: singlicate
Chain of 320 wild-type protein kinases (Homo sapiens, UniProt P27361) (P27361 whole entry): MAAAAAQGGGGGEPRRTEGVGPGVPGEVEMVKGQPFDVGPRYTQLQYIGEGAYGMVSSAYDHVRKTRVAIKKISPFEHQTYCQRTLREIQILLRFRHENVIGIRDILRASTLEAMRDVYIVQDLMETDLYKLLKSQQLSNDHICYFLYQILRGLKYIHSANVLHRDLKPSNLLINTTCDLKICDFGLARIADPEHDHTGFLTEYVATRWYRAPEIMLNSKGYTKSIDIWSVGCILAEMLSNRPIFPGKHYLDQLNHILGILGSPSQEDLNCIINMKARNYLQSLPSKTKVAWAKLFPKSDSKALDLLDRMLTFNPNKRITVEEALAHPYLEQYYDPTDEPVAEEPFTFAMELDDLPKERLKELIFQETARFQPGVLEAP
From the text: as §1

[6] = molecular target: 320 wild-type protein kinases (Homo sapiens, UniProt P29376); details: LTK, singlicate
Chain of 320 wild-type protein kinases (Homo sapiens, UniProt P29376) (P29376 17-864): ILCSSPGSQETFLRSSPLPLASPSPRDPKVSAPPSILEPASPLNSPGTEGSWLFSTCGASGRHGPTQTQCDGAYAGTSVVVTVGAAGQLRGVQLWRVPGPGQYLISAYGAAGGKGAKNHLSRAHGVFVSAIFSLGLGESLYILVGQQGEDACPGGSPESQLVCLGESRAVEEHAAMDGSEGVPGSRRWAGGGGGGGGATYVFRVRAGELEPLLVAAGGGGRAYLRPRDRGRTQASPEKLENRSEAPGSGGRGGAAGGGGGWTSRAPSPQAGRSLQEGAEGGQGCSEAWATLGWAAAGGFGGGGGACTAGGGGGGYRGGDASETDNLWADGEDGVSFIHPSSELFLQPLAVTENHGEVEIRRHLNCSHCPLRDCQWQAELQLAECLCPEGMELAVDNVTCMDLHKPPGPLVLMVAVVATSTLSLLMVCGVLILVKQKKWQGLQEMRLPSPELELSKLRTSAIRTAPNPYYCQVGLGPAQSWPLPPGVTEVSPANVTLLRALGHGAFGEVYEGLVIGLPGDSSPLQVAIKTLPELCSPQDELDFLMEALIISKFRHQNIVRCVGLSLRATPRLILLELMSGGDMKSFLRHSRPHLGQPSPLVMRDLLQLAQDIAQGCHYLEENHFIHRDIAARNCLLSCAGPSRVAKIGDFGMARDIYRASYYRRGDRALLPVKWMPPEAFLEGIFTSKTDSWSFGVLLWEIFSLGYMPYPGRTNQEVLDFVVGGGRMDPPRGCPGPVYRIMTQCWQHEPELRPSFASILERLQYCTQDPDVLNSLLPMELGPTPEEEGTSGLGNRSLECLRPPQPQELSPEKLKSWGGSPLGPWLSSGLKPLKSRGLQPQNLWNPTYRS
From the text: as §1

[7] = molecular target: T1, 320 wild-type protein kinases (Homo sapiens, UniProt P36896); details: ACV-R1B, singlicate
T1 sequence (P36896 24-505): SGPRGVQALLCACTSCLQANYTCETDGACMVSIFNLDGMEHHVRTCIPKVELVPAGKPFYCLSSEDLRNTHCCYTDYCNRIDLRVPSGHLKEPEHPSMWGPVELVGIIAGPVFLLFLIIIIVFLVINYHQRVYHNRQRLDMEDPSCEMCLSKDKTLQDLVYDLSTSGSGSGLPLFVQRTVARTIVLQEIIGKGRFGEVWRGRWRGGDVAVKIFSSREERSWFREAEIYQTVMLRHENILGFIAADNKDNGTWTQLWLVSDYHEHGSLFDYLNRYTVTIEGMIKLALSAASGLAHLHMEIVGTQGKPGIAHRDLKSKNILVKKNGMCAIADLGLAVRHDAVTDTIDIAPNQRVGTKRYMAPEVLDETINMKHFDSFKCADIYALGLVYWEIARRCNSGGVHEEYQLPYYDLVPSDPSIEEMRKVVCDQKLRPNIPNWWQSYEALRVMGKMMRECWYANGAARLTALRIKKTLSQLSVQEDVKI
From the text: as §1

[8] = molecular target: 320 wild-type protein kinases (Homo sapiens, UniProt P48730); details: CK1-delta, singlicate
Chain of 320 wild-type protein kinases (Homo sapiens, UniProt P48730) (P48730 whole entry): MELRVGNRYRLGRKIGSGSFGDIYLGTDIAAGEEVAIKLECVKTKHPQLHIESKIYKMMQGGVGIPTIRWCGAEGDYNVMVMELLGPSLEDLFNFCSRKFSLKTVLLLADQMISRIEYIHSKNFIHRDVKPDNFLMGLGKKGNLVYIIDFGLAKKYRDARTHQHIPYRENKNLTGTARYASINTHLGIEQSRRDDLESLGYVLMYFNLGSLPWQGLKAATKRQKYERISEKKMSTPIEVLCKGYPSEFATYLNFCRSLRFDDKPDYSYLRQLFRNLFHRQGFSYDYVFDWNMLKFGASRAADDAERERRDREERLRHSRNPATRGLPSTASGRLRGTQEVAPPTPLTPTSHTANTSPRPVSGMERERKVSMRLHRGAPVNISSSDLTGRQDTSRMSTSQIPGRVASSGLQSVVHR
From the text: as §1

[9] = molecular target: T2, 320 wild-type protein kinases (Homo sapiens, UniProt Q12866); details: MERTK, singlicate
T2 sequence (Q12866 21-999): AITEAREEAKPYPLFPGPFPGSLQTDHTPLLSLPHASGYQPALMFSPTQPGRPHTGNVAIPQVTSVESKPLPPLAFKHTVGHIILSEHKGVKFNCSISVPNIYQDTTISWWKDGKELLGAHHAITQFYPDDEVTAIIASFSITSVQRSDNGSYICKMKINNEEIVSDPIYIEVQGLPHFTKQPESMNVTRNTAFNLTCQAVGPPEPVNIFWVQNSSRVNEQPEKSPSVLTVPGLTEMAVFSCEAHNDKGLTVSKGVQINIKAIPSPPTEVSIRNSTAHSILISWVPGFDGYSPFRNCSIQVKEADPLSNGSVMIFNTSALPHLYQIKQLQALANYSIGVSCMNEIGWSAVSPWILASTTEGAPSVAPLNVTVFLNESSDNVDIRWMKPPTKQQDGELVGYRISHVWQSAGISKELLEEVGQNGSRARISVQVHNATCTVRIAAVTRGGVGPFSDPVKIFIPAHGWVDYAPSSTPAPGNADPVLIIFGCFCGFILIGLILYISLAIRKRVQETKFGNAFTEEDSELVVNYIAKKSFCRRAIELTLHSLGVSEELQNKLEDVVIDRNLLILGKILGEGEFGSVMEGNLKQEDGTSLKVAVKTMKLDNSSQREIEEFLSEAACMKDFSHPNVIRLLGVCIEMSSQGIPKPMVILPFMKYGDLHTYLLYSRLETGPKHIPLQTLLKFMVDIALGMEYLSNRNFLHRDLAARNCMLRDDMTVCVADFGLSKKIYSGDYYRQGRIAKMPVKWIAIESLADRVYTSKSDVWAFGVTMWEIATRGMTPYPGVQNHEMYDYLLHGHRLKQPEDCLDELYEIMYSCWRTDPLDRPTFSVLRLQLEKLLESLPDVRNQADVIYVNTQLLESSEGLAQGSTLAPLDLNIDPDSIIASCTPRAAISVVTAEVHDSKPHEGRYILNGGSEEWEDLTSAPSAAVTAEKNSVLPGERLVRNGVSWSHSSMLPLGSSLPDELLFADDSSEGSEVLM
From the text: as §1

[10] = molecular target: 320 wild-type protein kinases (Homo sapiens, UniProt Q86Y07); details: kinase VRK2, singlicate
Chain of 320 wild-type protein kinases (Homo sapiens, UniProt Q86Y07) (Q86Y07 whole entry): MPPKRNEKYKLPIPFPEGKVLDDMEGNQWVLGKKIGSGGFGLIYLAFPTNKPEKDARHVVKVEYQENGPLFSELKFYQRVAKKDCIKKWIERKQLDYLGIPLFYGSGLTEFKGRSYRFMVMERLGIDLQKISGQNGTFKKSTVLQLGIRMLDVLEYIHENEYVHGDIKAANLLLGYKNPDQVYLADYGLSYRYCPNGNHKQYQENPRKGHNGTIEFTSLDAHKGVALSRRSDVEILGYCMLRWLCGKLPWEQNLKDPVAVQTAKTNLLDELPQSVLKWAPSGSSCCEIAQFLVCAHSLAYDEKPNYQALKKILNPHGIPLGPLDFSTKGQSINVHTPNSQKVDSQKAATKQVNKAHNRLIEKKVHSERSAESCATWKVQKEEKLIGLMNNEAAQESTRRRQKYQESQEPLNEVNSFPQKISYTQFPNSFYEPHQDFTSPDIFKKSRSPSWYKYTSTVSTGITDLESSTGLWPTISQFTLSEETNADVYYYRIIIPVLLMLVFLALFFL
From the text: as §1

[11] = molecular target: 320 wild-type protein kinases (Homo sapiens, UniProt Q96RR4); details: singlicate
Chain of 320 wild-type protein kinases (Homo sapiens, UniProt Q96RR4) (Q96RR4 whole entry): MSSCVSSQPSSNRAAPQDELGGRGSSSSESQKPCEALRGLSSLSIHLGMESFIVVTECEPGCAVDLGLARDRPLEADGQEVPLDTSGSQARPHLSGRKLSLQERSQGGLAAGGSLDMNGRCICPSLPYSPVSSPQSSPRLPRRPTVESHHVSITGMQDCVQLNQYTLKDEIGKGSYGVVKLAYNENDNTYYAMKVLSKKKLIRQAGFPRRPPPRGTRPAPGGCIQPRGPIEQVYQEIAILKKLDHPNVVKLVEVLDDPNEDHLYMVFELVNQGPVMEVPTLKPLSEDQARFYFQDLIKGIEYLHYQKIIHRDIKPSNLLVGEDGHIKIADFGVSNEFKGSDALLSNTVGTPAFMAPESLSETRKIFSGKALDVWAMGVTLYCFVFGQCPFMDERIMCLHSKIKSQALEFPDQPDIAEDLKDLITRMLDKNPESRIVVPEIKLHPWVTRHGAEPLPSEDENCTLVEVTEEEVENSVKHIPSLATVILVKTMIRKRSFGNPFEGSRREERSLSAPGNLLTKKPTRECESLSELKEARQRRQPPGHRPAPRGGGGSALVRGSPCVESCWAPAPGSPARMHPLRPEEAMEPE
From the text: as §1

[12] = molecular target: 320 wild-type protein kinases (Homo sapiens, UniProt Q9H4B4); details: singlicate
From the text: as §1

[13] = molecular target: 320 wild-type protein kinases (Homo sapiens, UniProt Q9UIK4); details: singlicate
Chain of 320 wild-type protein kinases (Homo sapiens, UniProt Q9UIK4) (Q9UIK4 whole entry): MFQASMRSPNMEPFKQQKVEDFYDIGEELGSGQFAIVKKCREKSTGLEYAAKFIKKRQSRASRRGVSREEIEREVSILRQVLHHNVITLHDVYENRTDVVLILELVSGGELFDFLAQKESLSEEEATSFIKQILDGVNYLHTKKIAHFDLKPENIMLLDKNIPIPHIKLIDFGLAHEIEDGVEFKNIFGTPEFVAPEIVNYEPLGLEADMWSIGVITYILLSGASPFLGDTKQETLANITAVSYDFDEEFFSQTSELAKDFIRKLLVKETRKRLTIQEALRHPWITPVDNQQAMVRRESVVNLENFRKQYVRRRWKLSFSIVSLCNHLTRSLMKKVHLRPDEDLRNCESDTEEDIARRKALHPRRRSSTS
From the text: as §1

Row | SMILES | Residual activity ([1]; 1.0E-06 M) | Residual activity ([1]; 1.0E-07 M) | Residual activity, SRC (GST-HIS-tag) ([2]; assay conc. 1.0E-06 M) | Residual activity, SRC (GST-HIS-tag) ([2]; assay conc. 1.0E-07 M) | Residual activity ([3]; 1.0E-06 M) | Residual activity ([3]; 1.0E-07 M) | Residual activity ([4]; CK2-alpha2, 1.0E-06 M) | Residual activity ([4]; CK2-alpha2, 1.0E-07 M) | Residual activity ([5]; ERK1, 1.0E-06 M) | Residual activity ([5]; ERK1, 1.0E-07 M) | Residual activity ([6]; 1.0E-06 M) | Residual activity ([6]; 1.0E-07 M) | Residual activity ([7]; 1.0E-06 M) | Residual activity ([7]; 1.0E-07 M) | Residual activity ([8]; 1.0E-06 M) | Residual activity ([8]; 1.0E-07 M) | Residual activity ([9]; 1.0E-06 M) | Residual activity ([9]; 1.0E-07 M) | Residual activity, VRK2 ([10]; assay conc. 1.0E-06 M) | Residual activity, VRK2 ([10]; assay conc. 1.0E-07 M) | also measured
1 | C#Cc1cc(Nc2ncnc3cc(I)ccc23)ccc1Cl [Compound 41] | 98 % of control | 114 % of control | 86 % of control | 108 % of control | 115 % of control | 145 % of control | 115 % of control | 115 % of control | 97 % of control | 91 % of control | 77 % of control | 106 % of control | 126 % of control | 105 % of control | 115 % of control | 134 % of control | 102 % of control | 103 % of control | 97 % of control | 95 % of control | Residual activity ([11]; CAMKK2, 1.0E-06 M): 71 % of control; Residual activity ([11]; CAMKK2, 1.0E-07 M): 96 % of control; Residual activity ([12]; PLK3, 1.0E-06 M): 102 % of control; Residual activity ([12]; PLK3, 1.0E-07 M): 109 % of control; Residual activity ([13]; DAPK2, 1.0E-06 M): 118 % of control; Residual activity ([13]; DAPK2, 1.0E-07 M): 113 % of control
2 | C#Cc1cc(Nc2ncnc3cc(OC)c(OC)cc23)ccc1Cl [Compound 45] | 95 % of control | 107 % of control | 90 % of control | 100 % of control | 108 % of control | 112 % of control | 111 % of control | 118 % of control | 95 % of control | 92 % of control | 54 % of control | 100 % of control | 128 % of control | 99 % of control | 111 % of control | 129 % of control | 83 % of control | 97 % of control | 232 % of control | 87 % of control | Residual activity ([11]; CAMKK2, 1.0E-06 M): 74 % of control; Residual activity ([11]; CAMKK2, 1.0E-07 M): 79 % of control; Residual activity ([12]; PLK3, 1.0E-06 M): 98 % of control; Residual activity ([12]; PLK3, 1.0E-07 M): 103 % of control; Residual activity ([13]; DAPK2, 1.0E-06 M): 101 % of control; Residual activity ([13]; DAPK2, 1.0E-07 M): 132 % of control
